# Test results: patent US12643881B2, “Bicyclic amine CDK12 inhibitors” (Incyte Corporation, priority 2021, dated 2026)
# Molecular target: T1, CDK12 complexed with Cyclin K (Homo sapiens, UniProt Q9NYV4)
# T1 construct: GST (N)
# Assay: CDK Enzymatic Assays (HTRF, LANCE Ultra kinase assay), Example A1
# Assay type: biochemical
# Conditions: enzyme pre-incubated with compounds for 60 minutes prior to addition of ATP (1 mM final) and Ulight-peptide; reaction 60-90 minutes at room temperature
# From the text: Example A1. CDK Enzymatic Assays
# The following activity of the CDK enzymes in complex with their respective cyclins we assayed: CDK1 complexed with Cyclin B1; CDK2 complexed with Cyclin E1; CDK4 complexed with Cyclin D1; CDK6 complexed with Cyclin D1; CDK6 complexed with Cyclin D3; CDK9 complexed with Cyclin T1; CDK7 complexed with Cyclin H/MAT1; CDK2 complexed with Cyclin A2; CDK5 complexed with p35; CDK12 complexed with Cyclin K; CDK13 complexed with Cyclin K. These in vitro enzyme activity are assayed using homogeneous time-resolved energy transfer (HTRF), which measures phosphorylation of a peptide substrate. The LANCER Ultra kinase assay (PerkinElmer) uses a ULight™-labeled EIF4E-binding protein 1 (THR37/46) peptide (DYSTTPGGTLFSTTPGTRI (SEQ ID NO: 1)) substrate and a Europium-labeled anti-phospho-4E-BP1 antibody (CDK2, CDK1, CDK4, CDK6, CDK9, CDK12, CDK13) or ULight™-labeled Myelin Basic Protein peptide (VTPRTPPP (SEQ ID NO: 2)) substrate and a Europium-labeled anti-phospho-MBP antibody (CDK7). Each CDK enzyme activity assays utilized human CDK co-expressed as N-terminal GST-tagged protein with its full length cyclin partner using a baculovirus expression system.
# Enzyme was pre-incubated with compounds for 30 minutes (CDK1,2,4,6,9) or 60 minutes (CDK7, CDK12, CDK13) prior to addition of ATP and Ulight-peptide (1 mM and 50 nM final, respectively), in assay buffer containing 50 mM HEPES pH 7.5, 1 mM EGTA, 10 mM MgCl2, 2 mM DTT, 0.05 mg/mL BSA, and 0.01% Tween 20. The reaction was then incubated for 60-90 minutes at room temperature. The reactions were stopped by the addition of EDTA and Europium labeled antibody, for a final concentration of 15 mM and 1.0-1.5 nM, respectively. HTRF signals were read after 15-120 minutes. A ratio of fluorescence transferred to the labeled substrate (665 nm) relative to fluorescence of the Europium donor (620 nm) represents the extent of phosphorylation. Ratios for treated wells were normalized to DMSO only (100% activity) and no enzyme (0% activity) controls. Normalized data was analyzed using a three or four parameter dose response curve to determine IC50 for each compound and are shown in Table A. Control reference inhibitors were included on each plate.
# T1 sequence (Q9NYV4 whole entry): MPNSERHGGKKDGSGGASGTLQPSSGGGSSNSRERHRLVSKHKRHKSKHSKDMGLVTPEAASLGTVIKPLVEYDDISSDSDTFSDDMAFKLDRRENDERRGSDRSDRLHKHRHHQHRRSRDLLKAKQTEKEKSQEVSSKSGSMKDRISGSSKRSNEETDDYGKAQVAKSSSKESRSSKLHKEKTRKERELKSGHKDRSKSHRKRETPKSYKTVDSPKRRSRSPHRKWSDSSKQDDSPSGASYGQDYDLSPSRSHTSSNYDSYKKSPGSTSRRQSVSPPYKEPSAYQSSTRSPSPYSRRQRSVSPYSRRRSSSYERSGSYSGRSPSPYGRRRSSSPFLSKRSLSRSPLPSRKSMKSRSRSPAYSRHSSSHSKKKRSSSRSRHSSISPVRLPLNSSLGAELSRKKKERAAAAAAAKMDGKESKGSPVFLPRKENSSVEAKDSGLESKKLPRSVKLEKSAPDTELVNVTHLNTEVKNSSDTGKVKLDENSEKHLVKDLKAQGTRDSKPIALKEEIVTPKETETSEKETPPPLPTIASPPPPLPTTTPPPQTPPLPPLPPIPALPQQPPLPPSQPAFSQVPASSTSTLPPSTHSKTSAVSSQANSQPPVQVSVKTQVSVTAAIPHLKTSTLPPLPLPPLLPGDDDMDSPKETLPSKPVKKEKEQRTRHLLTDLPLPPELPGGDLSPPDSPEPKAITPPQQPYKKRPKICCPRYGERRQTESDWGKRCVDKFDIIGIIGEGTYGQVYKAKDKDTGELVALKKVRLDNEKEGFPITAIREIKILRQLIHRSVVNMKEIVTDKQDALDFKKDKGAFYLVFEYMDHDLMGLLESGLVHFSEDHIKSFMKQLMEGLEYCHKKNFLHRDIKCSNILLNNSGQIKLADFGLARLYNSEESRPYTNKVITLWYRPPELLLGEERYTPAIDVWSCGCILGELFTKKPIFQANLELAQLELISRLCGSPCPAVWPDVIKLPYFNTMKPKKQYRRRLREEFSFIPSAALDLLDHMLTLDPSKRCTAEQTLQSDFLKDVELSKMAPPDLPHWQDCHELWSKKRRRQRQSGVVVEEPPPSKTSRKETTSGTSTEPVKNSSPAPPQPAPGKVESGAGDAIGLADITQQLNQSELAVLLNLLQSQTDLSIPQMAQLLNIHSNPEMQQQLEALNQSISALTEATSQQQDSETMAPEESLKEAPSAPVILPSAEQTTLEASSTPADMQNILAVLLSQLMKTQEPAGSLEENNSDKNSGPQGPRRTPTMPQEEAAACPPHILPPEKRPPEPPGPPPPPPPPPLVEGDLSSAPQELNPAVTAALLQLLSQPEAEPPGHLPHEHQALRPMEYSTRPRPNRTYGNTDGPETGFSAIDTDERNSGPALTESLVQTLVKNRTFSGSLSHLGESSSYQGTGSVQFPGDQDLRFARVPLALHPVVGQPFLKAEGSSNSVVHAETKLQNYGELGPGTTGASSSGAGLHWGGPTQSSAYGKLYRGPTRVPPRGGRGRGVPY
# T1 sequence (O75909 whole entry partner): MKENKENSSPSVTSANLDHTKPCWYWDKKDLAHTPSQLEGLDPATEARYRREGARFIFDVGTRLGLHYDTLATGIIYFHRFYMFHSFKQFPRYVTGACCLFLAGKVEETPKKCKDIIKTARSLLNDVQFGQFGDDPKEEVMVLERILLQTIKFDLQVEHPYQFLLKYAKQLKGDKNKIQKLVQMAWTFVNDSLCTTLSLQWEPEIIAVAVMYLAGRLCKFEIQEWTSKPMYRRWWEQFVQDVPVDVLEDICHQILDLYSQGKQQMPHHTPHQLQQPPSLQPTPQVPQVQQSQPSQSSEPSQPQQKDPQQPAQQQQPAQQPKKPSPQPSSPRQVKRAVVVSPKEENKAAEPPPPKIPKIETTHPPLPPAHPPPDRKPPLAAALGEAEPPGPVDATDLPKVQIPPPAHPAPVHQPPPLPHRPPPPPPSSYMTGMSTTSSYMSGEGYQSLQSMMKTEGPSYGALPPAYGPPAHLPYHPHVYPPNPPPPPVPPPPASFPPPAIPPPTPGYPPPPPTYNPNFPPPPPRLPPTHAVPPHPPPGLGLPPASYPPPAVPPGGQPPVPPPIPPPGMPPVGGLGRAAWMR
row,IC50 [nM],SMILES
1,< 50,"C=CC(=O)Nc1ccc2c(c1)C(=O)N([C@H]1CCC[C@@H](Nc3ncc(OC(F)F)cn3)C1)C2 [Example 6, N-(2-((1S,3R)-3-((5-(Difluoromethoxy)pyrimidin-2-yl)amino)cyclohexyl)-3-oxoisoindolin-5-yl)acrylamide]"
2,< 50,"C=CC(=O)Nc1c(C)nc2c(N3CCC[C@@H](Nc4ncc(C#N)c(OC)n4)C3)nccn12 [Example 14, (R)—N-(8-(3-((5-Cyano-4-methoxypyrimidin-2-yl)amino)piperidin-1-yl)-2-methylimidazo[1,2-a]pyrazin-3-yl)acrylamide]"
3,< 50,"C=CC(=O)N(C)c1ccc2c(c1)C(=O)N([C@H]1CCC[C@@H](Nc3ncc(C#N)c(OC)n3)C1)C2 [Example 65, N-(2-((1S,3R)-3-((5-Cyano-4-methoxypyrimidin-2-yl)amino)cyclohexyl)-3-oxoisoindolin-5-yl)-N-methylacrylamide]"
4,< 50,"COc1nc(N[C@@H]2CCC[C@H](N3Cc4ccc(NC(=O)CBr)cc4C3=O)C2)ncc1C#N [Example 58, 2-Bromo-N-(2-((1S,3R)-3-((5-cyano-4-methoxypyrimidin-2-yl)amino)cyclohexyl)-3-oxoisoindolin-5-yl)acetamide]"
5,< 50,"C=CC(=O)Nc1c(Br)cc2c(nc(N3CCC[C@@H](Nc4ncc(C(F)(F)F)cn4)C3)n2C)c1C [Example 103, (R)—N-(6-Bromo-1,4-dimethyl-2-(3-((5-(trifluoromethyl)pyrimidin-2-yl)amino)piperidin-1-yl)-1H-benzo[d]imidazol-5-yl)acrylamide]"
6,< 50,"C=CC(=O)Nc1ccc2c(c1)C(=O)N([C@H]1CCC[C@@H](Nc3ncc(C#N)c(C)n3)C1)C2 [Example 9, N-(2-((1S,3R)-3-((5-Cyano-4-methylpyrimidin-2-yl)amino)cyclohexyl)-3-oxoisoindolin-5-yl)acrylamide]"
7,< 50,"C=CC(=O)Nc1ccc2c(c1)nc(N1CC[C@H](F)[C@@H](Nc3ncc(C(F)(F)F)cn3)C1)n2C [Example 91, N-(2-((3S,4S)-4-Fluoro-3-((5-(trifluoromethyl)pyrimidin-2-yl)amino)piperidin-1-yl)-1-methyl-1H-benzo[d]imidazol-5-yl)acrylamide]"
8,< 50,"C=CC(=O)Nc1ccc2c(c1)ncn2[C@H]1CCC[C@@H](Nc2ncc(C#N)c(OC)n2)C1 [Example 79, N-(1-((1S,3R)-3-((5-Cyano-4-methoxypyrimidin-2-yl)amino)cyclohexyl)-1H-benzo[d]imidazol-5-yl)acrylamide]"
9,50 to 500,"CC#CC(=O)Nc1ccc2c(c1)C(=O)N([C@H]1CCC[C@@H](Nc3ncc(C#N)c(OC)n3)C1)C2 [Example 60, N-(2-((1S,3R)-3-((5-Cyano-4-methoxypyrimidin-2-yl)amino)cyclohexyl)-3-oxoisoindolin-5-yl)but-2-ynamide]"
10,< 50,"C=CC(=O)Nc1ccc2c(c1)C(=O)N([C@H]1CCC[C@@H](Nc3ncc(C(C)C)cn3)C1)C2 [Example 12, N-(2-((1S,3R)-3-((5-Isopropylpyrimidin-2-yl)amino)cyclohexyl)-3-oxoisoindolin-5-yl)acrylamide]"
11,< 50,"C=CC(=O)Nc1cccc2c1cnn2[C@H]1CCC[C@@H](Nc2ncc(C#N)c(OC)n2)C1 [Example 24, N-(1-((1S,3R)-3-((5-Cyano-4-methoxypyrimidin-2-yl)amino)cyclohexyl)-1H-indazol-4-yl)acrylamide]"
12,< 50,"C=CC(=O)Nc1ccc2c(c1)C(=O)N([C@H]1CCC[C@@H](Nc3ncc(C(F)(F)F)cn3)C1)C2 [Example 85, N-(3-Oxo-2-((1S,3R)-3-((5-(trifluoromethyl)pyrimidin-2-yl)amino)cyclohexyl)isoindolin-5-yl)acrylamide]"
13,< 50,"COc1nc(N[C@@H]2CCC[C@H](N3Cc4ccc(NC(=O)CCl)cc4C3=O)C2)ncc1C#N [Example 59, 2-Chloro-N-(2-((1S,3R)-3-((5-cyano-4-methoxypyrimidin-2-yl)amino)cyclohexyl)-3-oxoisoindolin-5-yl)acetamide]"
14,< 50,"C=CC(=O)Nc1ccc2c(c1)C(=O)N([C@H]1CCC[C@@H](Nc3ncc(C#N)c(NCC(C)(C)O)n3)C1)C2 [Example 66, N-(2-((1S,3R)-3-((5-Cyano-4-((2-hydroxy-2-methylpropyl)amino)pyrimidin-2-yl)amino)cyclohexyl)-3-oxoisoindolin-5-yl)acrylamide]"
15,< 50,"COc1nc(N[C@@H]2CCC[C@H](c3nc4cc(NC(=O)C(C)Br)ccc4n3C)C2)ncc1C#N (stereo partly drawn) [Example 52, 2-Bromo-N-(2-((1S,3R)-3-((5-cyano-4-methoxypyrimidin-2-yl)amino)cyclohexyl)-1-methyl-1H-benzo[d]imidazol-5-yl)propanamide]"
16,50 to 500,"COc1nc(N[C@@H]2CCC[C@H](N3Cc4ccc(NC(=O)/C=C/CF)cc4C3=O)C2)ncc1C#N [Example 57, (E)-N-(2-((1S,3R)-3-((5-Cyano-4-methoxypyrimidin-2-yl)amino)cyclohexyl)-3-oxoisoindolin-5-yl)-4-fluorobut-2-enamide]"
17,50 to 500,"C=C(F)C(=O)Nc1ccc2c(c1)C(=O)N([C@H]1CCC[C@@H](Nc3ncc(C#N)c(OC)n3)C1)C2 [Example 56, N-(2-((1S,3R)-3-((5-Cyano-4-methoxypyrimidin-2-yl)amino)cyclohexyl)-3-oxoisoindolin-5-yl)-2-fluoroacrylamide]"
18,> 500,"C/C=C/C(=O)Nc1ccc2c(c1)C(=O)N([C@H]1CCC[C@@H](Nc3ncc(C#N)c(OC)n3)C1)C2 [Example 64, (E)-N-(2-((1S,3R)-3-((5-Cyano-4-methoxypyrimidin-2-yl)amino)cyclohexyl)-3-oxoisoindolin-5-yl)but-2-enamide]"
19,< 50,"C=CC(=O)Nc1ccc2c(c1)C(=O)N([C@H]1CCC[C@@H](Nc3ncc(C(F)(F)F)c(NC)n3)C1)C2 [Example 78, N-(2-((1S,3R)-3-((4-(Methylamino)-5-(trifluoromethyl)pyrimidin-2-yl)amino)cyclohexyl)-3-oxoisoindolin-5-yl)acrylamide]"
20,> 500,"C=CC(=O)Nc1ccc2c(c1)C(=O)N([C@H]1CCC[C@@H](Nc3ncc(-c4cnn(C)c4)cn3)C1)C2 [Example 8, N-(2-((1S,3R)-3-((5-(1-Methyl-1H-pyrazol-4-yl)pyrimidin-2-yl)amino)cyclohexyl)-3-oxoisoindolin-5-yl)acrylamide]"
21,< 50,"COc1nc(N[C@@H]2CCC[C@H](c3nc4cc(NC(=O)CCl)ccc4n3C)C2)ncc1C#N [Example 50, 2-Chloro-N-(2-((1S,3R)-3-((5-cyano-4-methoxypyrimidin-2-yl)amino)cyclohexyl)-1-methyl-1H-benzo[d]imidazol-5-yl)acetamide]"
22,< 50,"C=CC(=O)Nc1nn(C)c2cc(N3CC[C@@H](Nc4ncc(C#N)c(OC)n4)C3)ncc12 [Example 2, (R)—N-(6-(3-((5-Cyano-4-methoxypyrimidin-2-yl)amino)pyrrolidin-1-yl)-1-methyl-1H-pyrazolo[4,3-c]pyridin-3-yl)acrylamide]"
23,< 50,"C=CC(=O)Nc1cccc2c(N3CCC[C@@H](Nc4ncc(C#N)c(OC)n4)C3)nn(C)c12 [Example 35, (R)—N-(3-(3-((5-Cyano-4-methoxypyrimidin-2-yl)amino)piperidin-1-yl)-1-methyl-1H-indazol-7-yl)acrylamide]"
24,< 50,"CCC(Br)C(=O)Nc1ccc2c(c1)nc([C@H]1CCC[C@@H](Nc3ncc(C#N)c(OC)n3)C1)n2C (stereo partly drawn) [Example 49, 2-Bromo-N-(2-((1S,3R)-3-((5-cyano-4-methoxypyrimidin-2-yl)amino)cyclohexyl)-1-methyl-1H-benzo[d]imidazol-5-yl)butanamide]"
25,50 to 500,"CC#CC(=O)Nc1ccc2c(c1)nc([C@H]1CCC[C@@H](Nc3ncc(C#N)c(OC)n3)C1)n2C [Example 54, N-(2-((1S,3R)-3-((5-Cyano-4-methoxypyrimidin-2-yl)amino)cyclohexyl)-1-methyl-1H-benzo[d]imidazol-5-yl)but-2-ynamide]"
26,< 50,"C=CC(=O)Nc1ccc2c(c1)nc([C@H]1CCC[C@@H](Nc3ncc(C(F)(F)F)cn3)C1)n2C [Example 72, N-(1-Methyl-2-((1S,3R)-3-((5-(trifluoromethyl)pyrimidin-2-yl)amino)cyclohexyl)-1H-benzo[d]imidazol-5-yl)acrylamide]"
27,< 50,"C=CC(=O)Nc1ccc2c(c1)C(=O)N([C@H]1CCC[C@@H](Nc3ncc(C(F)(F)F)c(OC)n3)C1)C2 [Example 61, N-(2-((1S,3R)-3-((4-Methoxy-5-(trifluoromethyl)pyrimidin-2-yl)amino)cyclohexyl)-3-oxoisoindolin-5-yl)acrylamide]"
